Counter-ions that a name gives are not always drawn.
Target: T1, recombinant human ALK enzyme (ALK WT) (Homo sapiens, UniProt Q9UM73)
T1 construct: purchased Carna Biosciences 08-518
Test: ALK WT cell free enzymatic assay (TR-FRET)
Type: biochemical
Conditions: 1 μM ATP; for IC50: 10 point dose response; for inhibition at 0.1 µM: compound at 100 nM; for inhibition at 0.1 µM / inhibition at 1 µM: 30 min pre-incubation; for inhibition at 1 µM: compound at 1 μM
Protocol: ALK Wild Type (WT) The ALK WT cell free assay was set up to evaluate the effects of these compounds as inhibitors of ALK enzyme. The enzymatic assay was standardized using recombinant human ALK enzyme (Cat#08-518) from Carna Biosciences using Ultra Light Poly GT (Cat# TRF 0100D) from Perkin Elmer as a substrate. TR-FRET (Time resolved fluorescence resonance energy transfer) detection technology was used for the read out. The final assay conditions were 50 mM HEPES pH 7.1, 10 mM MgCl2, 2 mM MnCl2, 0.01% BSA, 2.5 mM DTT, 0.1 mM Na3 VO4, 40 nM Ultra Light Poly GT, 2.5 ng ALK WT enzyme, 1 μM ATP and 125 nM Lance Eu-W1024 labeled anti phospho tyrosine antibody (Cat# AD0203, Perkin Elmer) in 384 well format. The assay reaction time with the substrate was 30 minutes after which the antibody detection mix is added. The TR-FRET signal (Excitation at 340 nm, Emission at 615 nm and 665 nm) was read with 50 μs delay time on Victor^3 V fluorimeter. The data is calculated using the ratio of reading at 665 nM to 615 nM. The final concentration of DMSO was 1% in the assay. Compounds were screened at 100 nM and 1 μM concentrations with pre-incubation of the enzymes with compound for 30 minutes. Each individual IC50 was determined using 10 point dose response curve generated by GraphPad Prism software Version 4 (San Diego, Calif., USA) using non linear regression curve fit for sigmoidal dose response (variable slope). Percentage inhibition at concentrations of 100 nM and 1.0 μM are given in table along with the IC50 (nM) details for selected examples.

T1 sequence (Q9UM73 1058-1620 limits assumed): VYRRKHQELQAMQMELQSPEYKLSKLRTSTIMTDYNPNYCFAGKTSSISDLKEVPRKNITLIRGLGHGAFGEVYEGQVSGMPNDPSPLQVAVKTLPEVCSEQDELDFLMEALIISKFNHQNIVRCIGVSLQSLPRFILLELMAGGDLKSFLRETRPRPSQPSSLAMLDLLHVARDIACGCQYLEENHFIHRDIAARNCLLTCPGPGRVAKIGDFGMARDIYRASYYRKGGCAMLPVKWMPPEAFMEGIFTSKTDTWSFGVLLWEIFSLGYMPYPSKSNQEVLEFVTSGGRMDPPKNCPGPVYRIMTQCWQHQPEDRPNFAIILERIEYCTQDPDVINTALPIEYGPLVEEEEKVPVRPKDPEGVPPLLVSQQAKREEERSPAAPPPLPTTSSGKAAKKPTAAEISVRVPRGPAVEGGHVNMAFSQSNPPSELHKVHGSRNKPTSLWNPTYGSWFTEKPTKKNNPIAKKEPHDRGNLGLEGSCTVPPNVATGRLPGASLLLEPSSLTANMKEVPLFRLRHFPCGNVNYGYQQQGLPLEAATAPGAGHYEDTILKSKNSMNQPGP

Row | SMILES | IC50 | inhibition at 0.1 µM | inhibition at 1 µM
1 | Fc1cccc(Cn2cc(-c3c[nH]c4ncc(-c5cccc(CC6CCNCC6)c5)cc34)cn2)c1 [Example 102, 3-(1-(3-fluorobenzyl)-1H-pyrazol-4-yl)-5-(3-(piperidin-4-ylmethyl)phenyl)-1H-pyrrolo[2,3-b]pyridine] | < 50 nM | 91% | 100%
2 | CS(=O)(=O)Nc1cc(-c2cnc3[nH]cc(-c4cnn(CCc5ccccc5)c4)c3c2)ccc1N1CCNCC1 [Example 107, N-(5-(3-(1-phenethyl-1H-pyrazol-4-yl)-1H-pyrrolo[2,3-b]pyridin-5-yl)-2-(piperazin-1-yl)phenyl) methanesulfonamide hydrochloride] | < 50 nM | 99% | 100%
3 | CS(=O)(=O)Nc1cccc(-c2cnc3[nH]cc(-c4cnn(Cc5cccc(N)c5)c4)c3c2)c1 [Example 8, N-(3-(3-(1-(3-aminobenzyl)-1H-pyrazol-4-yl)-1H-pyrrolo[2,3-b]pyridin-5-yl)phenyl) methane sulfonamide] | < 50 nM | 81% | 97%
4 | Cc1nn(Cc2cccc(F)c2)c(C)c1-c1c[nH]c2ncc(-c3cccc(CC4CCNCC4)c3)cc12 [Example 99, 3-(1-(3-fluorobenzyl)-3,5-dimethyl-1H-pyrazol-4-yl)-5-(3-(piperidin-4-ylmethyl)phenyl)-1H-pyrrolo[2,3-b]pyridine] | < 50 nM | 89% | 99%
5 | CN1CCN(c2ccc(-c3cnc4[nH]cc(-c5cnn(CCc6ccccc6)c5)c4c3)cc2)CC1 [Example 109, 5-(4-(4-methylpiperazin-1-yl)phenyl)-3-(1-phenethyl-1H-pyrazol-4-yl)-1H-pyrrolo[2,3-b]pyridine] | – | 76% | 100%
6 | COc1ccc(Cn2cc(-c3c[nH]c4ncc(-c5cccc(NS(C)(=O)=O)c5)cc34)cn2)cc1 [Example 3, N-(3-(3-(1-(4-methoxybenzyl)-1H-pyrazol-4-yl)-1H-pyrrolo[2,3-b]pyridin-5-yl)phenyl)n methane sulfonamide] | > 250 nM | – | 65%
7 | CC(=O)Nc1cccc(Cn2nc(C)c(-c3c[nH]c4ncc(-c5ccc(N6CCNCC6)cc5)cc34)c2C)c1 [Example 50, N-(3-((3,5-dimethyl-4-(5-(4-(piperazin-1-yl)phenyl)-1H-pyrrolo[2,3-b]pyridin-3-yl)-1H-pyrazol-1-yl)methyl)phenyl)acetamide] | < 50 nM | 60% | 89%
8 | Nc1cc(-c2cnc3[nH]cc(-c4cnn(Cc5cccc(F)c5)c4)c3c2)ccc1N1CCNCC1 [Example 105, 5-(3-(1-(3-fluorobenzyl)-1H-pyrazol-4-yl)-1H-pyrrolo[2,3-b]pyridin-5-yl)-2-(piperazin-1-yl) aniline] | < 50 nM | 98% | 100%
9 | CS(=O)(=O)Nc1cccc(-c2cnc3[nH]cc(-c4cnn(Cc5cccc(C#N)c5)c4)c3c2)c1 [Example 11, N-(3-(3-(1-(3-cyanobenzyl)-1H-pyrazol-4-yl)-1H-pyrrolo[2,3-b]pyridin-5-yl)phenyl)methane sulfonamide] | < 50 nM | 64% | 90%
10 | CN1CCC(c2ccc(-c3cnc4[nH]cc(-c5cnn(Cc6cccc(F)c6)c5)c4c3)cc2)CC1 [Example 83, 3-(1-(3-fluorobenzyl)-1H-pyrazol-4-yl)-5-(4-(1-methylpiperidin-4-yl)phenyl)-1H-pyrrolo[2,3-b]pyridine] | < 50 nM | 96% | 100%

Results, then the compound that gave them:

Row | IC50 | inhibition at 0.1 µM | inhibition at 1 µM | SMILES
11 | < 50 nM | 92% | 99% | CN1CCN(c2ncc(-c3cnc4[nH]cc(-c5cnn(Cc6cccc(F)c6)c5)c4c3)cc2F)CC1 [Example 179, 5-(5-fluoro-6-(4-methylpiperazin-1-yl)pyridin-3-yl)-3-(1-(3-fluorobenzyl)-1H-pyrazol-4-yl)-1H-pyrrolo[2,3-b]pyridine]
12 | < 50 nM | 95% | 100% | C[C@H](O)CN1CCN(c2ccc(-c3cnc4[nH]cc(-c5cnn(Cc6cc(F)cc(F)c6)c5)c4c3)cn2)CC1 [Example 135, (S)-1-(4-(5-(3-(1-(3,5-difluorobenzyl)-1H-pyrazol-4-yl)-1H-pyrrolo[2,3-b]pyridin-5-yl)pyridin-2-yl)piperazin-1-yl)propan-2-ol]
13 | < 50 nM | 96% | 100% | COc1cc(-c2cnc3[nH]cc(-c4cnn(Cc5cccc(F)c5)c4)c3c2)cnc1N1CCNCC1 [Example 174, 3-(1-(3-fluorobenzyl)-1H-pyrazol-4-yl)-5-(5-methoxy-6-(piperazin-1-yl)pyridin-3-yl)-1H-pyrrolo[2,3-b]pyridine]
14 | < 50 nM | 100% | 100% | Fc1cccc(Cn2cc(-c3c[nH]c4ncc(-c5ccc(N6CCNCC6)nc5)cc34)cn2)c1 [Example 132, 3-(1-(3-fluorobenzyl)-1H-pyrazol-4-yl)-5-(6-(piperazin-1-yl)pyridin-3-yl)-1H-pyrrolo[2,3-b]pyridine]
15 | < 50 nM | 92% | 97% | C[C@H](O)CN1CCN(c2ccc(-c3cnc4[nH]cc(-c5cnn(Cc6cccc(O)c6)c5)c4c3)cn2)CC1 [Example 151, (S)-3-((4-(5-(6-(4-(2-hydroxypropyl)piperazin-1-yl)pyridin-3-yl)-1H-pyrrolo[2,3-b]pyridin-3-yl)-1H-pyrazol-1-yl)methyl)phenol]
16 | < 50 nM | 94% | 98% | C[C@H](O)CN1CCN(c2ccc(-c3cnc4[nH]cc(-c5cnn(Cc6ccccc6)c5)c4c3)cc2)CC1 [Example 118, (S)-1-(4-(4-(3-(1-benzyl-1H-pyrazol-4-yl)-1H-pyrrolo[2,3-b]pyridin-5-yl)phenyl)piperazin-1-yl)propan-2-ol]
17 | > 250 nM | 23% | 71% | Fc1cc(-c2cnc3[nH]cc(-c4ccn(CCc5ccccc5)n4)c3c2)ccc1C1CCNCC1 [Example 168, 5-(3-fluoro-4-(piperidin-4-yl)phenyl)-3-(1-phenethyl-1H-pyrazol-3-yl)-1H-pyrrolo[2,3-b]pyridine]
18 | < 50 nM | 69% | 91% | CCS(=O)(=O)N1CCN(c2ccc(-c3cnc4[nH]cc(-c5cnn(Cc6cccc(F)c6)c5)c4c3)cn2)CC1 [Example 156, 5-(6-(4-(ethylsulfonyl)piperazin-1-yl)pyridin-3-yl)-3-(1-(3-fluorobenzyl)-1H-pyrazol-4-yl)-1H-pyrrolo[2,3-b]pyridine]
19 | < 50 nM | 97% | 100% | Fc1cc(F)cc(Cn2cc(-c3c[nH]c4ncc(-c5ccc(N6CCNCC6)nc5)cc34)cn2)c1 [Example 134, 3-(1-(3,5-difluorobenzyl)-1H-pyrazol-4-yl)-5-(6-(piperazin-1-yl)pyridin-3-yl)-1H-pyrrolo[2,3-b]pyridine]
20 | < 50 nM | 99% | 100% | NC(=O)CN1CCN(c2ccc(-c3cnc4[nH]cc(-c5cnn(Cc6cccc(F)c6)c5)c4c3)cn2)CC1 [Example 139, 2-(4-(5-(3-(1-(3-fluorobenzyl)-1H-pyrazol-4-yl)-1H-pyrrolo[2,3-b]pyridin-5-yl)pyridin-2-yl)piperazin-1-yl)acetamide]
21 | < 50 nM | 96% | 97% | CN(C)CC(=O)N1CCN(c2ccc(-c3cnc4[nH]cc(-c5cnn(Cc6cccc(F)c6)c5)c4c3)cc2)CC1 [Example 127, 2-(dimethylamino)-1-(4-(4-(3-(1-(3-fluorobenzyl)-1H-pyrazol-4-yl)-1H-pyrrolo[2,3-b]pyridin-5-yl)phenyl)piperazin-1-yl)ethanone]
22 | > 250 nM | 17% | 86% | O=C(CC1CC1)N1CCN(c2ccc(-c3cnc4[nH]cc(-c5cnn(Cc6cccc(F)c6)c5)c4c3)cc2)CC1 [Example 124, 2-cyclopropyl-1-(4-(4-(3-(1-(3-fluorobenzyl)-1H-pyrazol-4-yl)-1H-pyrrolo[2,3-b]pyridin-5-yl)phenyl)piperazin-1-yl)ethanone]
23 | – | 92% | 99% | C[C@H](O)CN1CCN(c2ccc(-c3cnc4[nH]cc(-c5cnn(Cc6cccc(F)c6)c5)c4c3)cc2F)CC1 [Example 114, (S)-1-(4-(2-fluoro-4-(3-(1-(3-fluorobenzyl)-1H-pyrazol-4-yl)-1H-pyrrolo[2,3-b]pyridin-5-yl)phenyl)piperazin-1-yl)propan-2-ol]
24 | < 50 nM | 93% | 100% | C[C@H](O)CN1CCN(c2ccc(-c3cnc4[nH]cc(-c5cnn(Cc6cccc(Cl)c6)c5)c4c3)cn2)CC1 [Example 153, (S)-1-(4-(5-(3-(1-(3-chlorobenzyl)-1H-pyrazol-4-yl)-1H-pyrrolo[2,3-b]pyridin-5-yl)pyridin-2-yl)piperazin-1-yl)propan-2-ol]
